Experimental data as given in patent US10220096B2, “Injectable and stable hydrogels with dynamic properties modulated by biocompatible catalysts” (The Board of Trustees of the Leland Stanford Junior …, priority 2016, dated 2019).

Tests used:
[1] = Kinetic measurements on hydrazone exchange (model reaction, HPLC); conditions: for k1, rate of hydrazone formation / k−1, rate of hydrazone cleavage: PBS pH about 7.4, about 37° C.
Procedure: 2-(aminomethyl)benzimidazole (1 in FIG. 2) is an efficient catalyst to accelerate hydrazone formation owing to facilitated intramolecular proton transfer in the transition state. The rates for hydrazone formation (k1) and cleavage (k−1) in the presence of 1 were measured using model reactions between hydrazine and aldehyde and modeled for a reversible second-order reaction (FIG. 8), and the equilibrium constant (Keq) was calculated from these rate constants. […] The gelation time of the HA-hydrazone hydrogels was dramatically shortened in the presence of 1. […] In the presence of about 25 mM of 1, gelation occurred in less than about 60 s and reached a final plateau shear modulus of about 800 Pa in about 5 min (FIG. 3b). Increasing the catalyst loading to about 100 mM further shortened the time to reach equilibrium to about 3 min (FIG. 3b). As shown in the frequency sweep experiment (FIG. 3c), stable gels were formed with a plateau storage modulus (G′) of about 1 kPa, which is more than an order of magnitude higher than the loss modulus (G″). […] In contrast, altering the HA polymer composition from about 1 to about 4 wt. % increased the plateau modulus (FIG. 3c). […] The rate of stress relaxation under constant strain was quantified by the time for the initially measured stress to relax to half of its original value, τ1/2. […] Accelerated hydrazone exchange by an incorporated catalyst also allowed these hydrogels to be readily remolded macroscopically (FIG. 9), facilitating their injection and re-processing. […] Therefore, the design provides a strategy to tune the modulus and rate of stress relaxation, two important mechanical properties for dynamic hydrogel materials, independently and continuously by polymer concentration and catalyst concentration, respectively.
The equilibrium constant (Keq) and rate constants for hydrazone formation (k1) and cleavage (k−1) between aldehyde S1 and hydrazine S3 as model compounds with different concentrations of catalyst 1 were measured by HPLC. S3 was synthesized by coupling N-(2-aminoethyl)-4-amino-1,8-naphthalimide with hydrazine using carbodiimide chemistry. About 2 mM stock solutions of hydrazine and aldehyde were prepared in a PBS buffer (1×, pH of about 7.4). An about 250 mM stock solution of catalyst 1 was prepared in PBS as described in the previous sections.
For the reactions performed in the absence of catalyst, about 10 μL of hydrazine and about 10 μL of aldehyde stock solutions were added to about 980 μL PBS buffer (1×, pH of about 7.4). For the reactions performed in the presence of catalyst 1, the appropriate amount of catalyst 1, hydrazine, and aldehyde were sequentially added to PBS buffer (1×, pH of about 7.4) from their stock solutions, maintaining the same concentrations for hydrazine and aldehyde as those without a catalyst. The reactions were performed at about 37° C. in a water bath and followed using HPLC with detection at about 420 nm absorption (HPLC conditions: XBridge 10 μm C18 column; about 40% acetonitrile in PBS buffer (pH of about 7) isocratic elution in about 7 min at a flow rate of about 0.34 mL/min. The concentrations and conversions were calculated from the integrals of the HPLC signals. The kinetic data of hydrazone formation were fitted to a kinetic model for 2nd order reactions using Matlab (FIG. 8).
Conditions: about 137 mM NaCl, about 2.7 mM KCl, about 12 mM phosphate, pH of about 7.4 buffer, about 37° C.

[2] = Compression test, remoldability of hydrogels; type: physicochemical; conditions: hydrogel containing about 100 mM of 1
Source text: FIG. 9. Compression test showing remoldability of HA-hydrazone hydrogels was improved with the addition of a catalyst.

[3] = tested on: Human Umbilical Vein Endothelial Cells (HUVECs); assay: Catalyst toxicity, MTT cell viability assay; type: cell-based; conditions: 2D culture
Procedure: Human Umbilical Vein Endothelial Cells (HUVECs) were obtained from Lonza. HUVECs were expanded in growth medium composed of about 10% fetal bovine serum, about 1% penicillin/streptomycin in EBM-2. The medium was changed every about 3 d and the cells were passaged at about 70% confluency. Cells were used at passage 5 or lower for all experiments.
HUVECs pre-seeded in 96-well plates at about 10^4 cells/well were incubated with catalysts 1 and 2 for about 1 h, about 4 h, about 24 h and about 72 h. Afterwards, the cells were washed with PBS, the cell viability MTT assay was carried out to determine the cell viabilities relative to the control cells incubated with the same volume of PBS.

[4] = Rheological tests of HA-hydrazone hydrogels (time sweep, frequency sweep, stress relaxation); type: physicochemical; conditions: for τ1/2, time for stress to relax to half of its original value: about 10% strain
Procedure: HA-hydrazine and HA-aldehyde were first solubilized in PBS (1×, pH of about 7.4) at 5 wt. % respectively. Catalyst 1 and 2 were dissolved in PBS (1×, pH of about 7.4) and adjusted pH to about 7.4 at a stock concentration of about 250 mM. HA hydrogels were prepared by mixing HA-hydrazine, catalyst, and HA-aldehyde stock solutions successively at hydrazine to aldehyde (molar) ratio of about 1:1. The volumes of stock solutions were adjusted to make gels with different formulations.
Rheological characterization was performed on a stress-controlled rheometer (AR-G2, TA instrument) using a 20 mm cone plate. About 45 μL of a sample was loaded immediately onto the rheometer after mixing to gel in situ on the rheometer and a humidity chamber was secured in place to prevent dehydration. All the tests were performed at about 37° C. Time sweeps were performed at about 1 Hz at about 1% constant strain. Frequency sweeps were performed from about 0.1 to about 10 Hz at about 1% constant strain. Stress relaxation experiments were performed at about 10% strain.

[5] = Hydrogel erosion study (uronic acid assay); type: physicochemical
Procedure: Long-term stability of hydrogel scaffolds is often desired to provide support for cell adhesion and growth after cell injection. Rapid hydrogel erosion is a challenge for many dynamic and injectable hydrogels. It is proposed that rapid passive diffusion of the dissolved small molecule catalyst away from the hydrogel post-injection would slow down the dynamic exchange of hydrazone crosslinks and thus enhance the hydrogel stability. Therefore evaluation was performed to monitor the diffusion of 2, which was incorporated in the hydrogel at either about 25 mM or about 50 mM initial concentration, into the buffer solution after injection by monitoring its absorption at about 281 nm. After about 50 μL hydrogel was injected and immersed in about 1 mL PBS, about 60% of 2 diffused out of the hydrogel within about 1 h, and less than about 1% remained inside the gel after about 8 h (FIG. 5a). To examine whether the rapid diffusion and thus removal of catalyst can increase the long-term stability of the hydrogels, comparison is performed of the erosion rate of hydrogels with different initial concentrations of incorporated catalyst. […] Hydrogels initially containing about 25 mM or about 50 mM of catalyst 2 had erosion rates of about 3.8 and about 4.1% per day respectively, similar to those without a catalyst (FIG. 5b), presumably due to rapid diffusion of 2 out of the hydrogels. In contrast, when diffusion of 2 away from the hydrogel was prevented by immersing the hydrogel into a buffer solution containing about 25 mM of 2, the hydrogel was completely dissolved within about 12 h (FIG. 12). […]
(§1) HA hydrogels containing 0, about 25, and about 50 mM of catalyst 2 were prepared as described in the previous section. […] Catalyst diffusion was quantified using UV measurement by monitoring absorption at about 281 nm. HA erosion was quantified by uronic acid assay according to reported procedures.

[6] = Ejection of hydrogel through 28-gauge syringe needle (injectability); type: physicochemical; conditions: about 2 wt. % hydrogel with about 25 mM of 2
Procedure: (§2) Evaluation was performed on the effect of catalyst 2 incorporated in HA-hydrazone hydrogels on the protection of encapsulated cells during injection. HUVECs were homogeneously encapsulated in about 2 wt. % hydrogels containing about 25 mM of 2 by rapidly mixing the cells suspended in HA solutions with catalyst and transferring to a syringe. Hydrogel was rapidly formed in the syringe and ejected through a 28-gauge syringe needle. A syringe pump was used for all cell injection experiments to ensure consistent flow rate for accurate comparison between all samples.

[7] = tested on: HUVECs encapsulated in hydrogel; assay: In vitro cell injection and quantification of viability (LIVE/DEAD); type: cell-based, Human; conditions: about 2 wt. % hydrogel with about 25 mM of 2, 28-gauge needle, about 20 min post-injection
Procedure: as §2
After injection, cells encapsulated in the hydrogels were incubated for about 20 min, and cell viability was then analyzed using a LIVE/DEAD staining assay.
Cell suspension was first mixed with HA-hydrazine stock solutions before further mixing with catalyst and HA-aldehyde stock solutions. All in vitro injection experiments were performed with about 30 μL gel volume containing about 3×10^4 cells. For cell injection, the final mixing stage was performed in the barrel of an about 1 mL insulin syringe fitted with a 28 gauge needle. […] Cell viability was determined using LIVE/DEAD viability/cytotoxicity kit (Invitrogen) at about 20 min post-injection and about 3 d post-injection (n=5). […] Cell numbers were quantified using ImageJ at each time point.

[8] = Catalyst diffusion out of hydrogel (UV absorption at about 281 nm); type: physicochemical; conditions: about 50 μL hydrogel in about 1 mL PBS
Procedure: Long-term stability of hydrogel scaffolds is often desired to provide support for cell adhesion and growth after cell injection. Rapid hydrogel erosion is a challenge for many dynamic and injectable hydrogels. It is proposed that rapid passive diffusion of the dissolved small molecule catalyst away from the hydrogel post-injection would slow down the dynamic exchange of hydrazone crosslinks and thus enhance the hydrogel stability. Therefore evaluation was performed to monitor the diffusion of 2, which was incorporated in the hydrogel at either about 25 mM or about 50 mM initial concentration, into the buffer solution after injection by monitoring its absorption at about 281 nm. After about 50 μL hydrogel was injected and immersed in about 1 mL PBS, about 60% of 2 diffused out of the hydrogel within about 1 h, and less than about 1% remained inside the gel after about 8 h (FIG. 5a). […]
as §1

[9] = about 2 wt. % HA hydrogel, about 25 mM of 1

NCc1nc2ccccc2[nH]1 [catalyst 1, 2-(aminomethyl)benzimidazole]
k1, rate of hydrazone formation ([1]; 25 mM of 1): 127 M⁻¹ s⁻¹
k−1, rate of hydrazone cleavage ([1]; 25 mM of 1): 0.00103 s⁻¹
k1, rate of hydrazone formation ([1]; 50 mM of 1): 250 M⁻¹ s⁻¹
k−1, rate of hydrazone cleavage ([1]; 50 mM of 1): 0.00203 s⁻¹
k1, rate of hydrazone formation ([1]; 100 mM of 1): 495 M⁻¹ s⁻¹
k−1, rate of hydrazone cleavage ([1]; 100 mM of 1): 0.00401 s⁻¹
enhancement of k1 ([1]; about 25 mM of 1): about 24 fold
enhancement of k−1 ([1]; about 25 mM of 1): about 24 fold
enhancement of k1 ([1]; about 50 mM of 1): about 47 fold
enhancement of k−1 ([1]; about 50 mM of 1): about 47 fold
enhancement of k1 ([1]; about 100 mM of 1): about 94 fold
enhancement of k−1 ([1]; about 100 mM of 1): about 94 fold
remoldability after pressing from about 2.4 mm to about 0.6 mm for about 5 min [2]: adopted the height of the mold
HUVEC cell death ([3]; about 25 mM, within several hours): Significant cell death
τ1/2, time for stress to relax to half of its original value ([4]; about 25 mM of 1): about 10 min
τ1/2, time for stress to relax to half of its original value ([4]; about 100 mM of 1): about 3 min
final plateau shear modulus [4, 9]: about 800 Pa
time to reach final plateau shear modulus [4, 9]: about 5 min
gelation time ([4]; about 2 wt. % HA hydrogel, about 25 mM of 1, about 37° C.): less than 60 s
time to reach equilibrium (gelation) ([4]; about 2 wt. % HA hydrogel, about 100 mM of 1): about 3 min

NCc1nc2ccccc2n1CCCS(=O)(=O)O [catalyst 2]
time to complete dissolution of hydrogel ([5]; hydrogel immersed in buffer containing about 25 mM of 2 (diffusion prevented)): ≤ 12 h
erosion rate ([5]; hydrogel initially containing about 25 mM of catalyst 2): about 3.8 % per day
erosion rate ([5]; hydrogel initially containing about 50 mM of catalyst 2): about 4.1 % per day
injectability through 28-gauge needle [6]: readily ejected through the thin needle without clogging
cell viability after injection [7]: about 87%
HUVEC cell death ([3]; about 5 mM, after about 3 days): negligible cell death
cells remaining viable ([3]; about 25 mM, about 24 h exposure): about 85%
fraction of catalyst remaining inside the gel ([8]; after about 8 h): less than 1%
fraction of catalyst diffused out of the hydrogel ([8]; within about 1 h, about 25 or 50 mM initial): about 60%
